Results: US5684026A, “Aminocyclopentane derivative” (priority 1994, dated 1997)

Legend:
Type in all cases: biochemical
[1] = target: T1, α-Glucosidase (Baker's yeast, EC 3.2.1.20) (Saccharomyces cerevisiae, UniProt P53341); assay: α-Glucosidase enzyme inhibition assay (p-nitrophenyl α-D-glucopyranoside); settings: for IC50: pH 6.8, 37° C., 30 minutes, read-out: IC50 (M) α-Glucosidase (Baker's yeast)
T1 construct: purchased Sigma; host or cells: Baker's yeast
Method: (§1) By using a 96-well microplate, the absorbance (at 405 nm) of liberated p- or o-nitrophenol was measured with a microplate reader (MPR-4Ai, manufactured by Tosoh Corporation).
(§2) Incubation was carried out at 37° C. by using a natural incubator (Compact NIB-10, manufactured by Iwaki Glass Co., Ltd.).
(§3) The enzymes employed herein [α-glucosidase (Baker's yeast), β-glucosidase (Almonds), α-galactosidase (E. coli), β-galactosidase (E. coli) and β-galactosidase (Bovine Liver)] were all purchased from Sigma.
(§4) The substrates (p- or o-nitrophenylglycoside) of these enzymes were all purchased from Sigma.
1) α-Glucosidase (Baker's yeast, EC 3.2.1.20) [described in H. Halvorson and L. Ellias, Biochim. Biophys. Acta, 30, 28-40 (1958)]
Into each well were introduced an aqueous solution of a sample (1 μl), a 0.66 mM solution of p-nitrophenyl α-D-glucopyranoside in a buffer (98 μl) and a (0.4 mg/ml) enzyme solution in the buffer (1 μl) to give a total volume of 100 μl. After incubating at 37° C. for 30 minutes, the reaction was ceased by adding a 1M aqueous solution of sodium carbonate (100 μl). Then the absorbance (A405) of p-nitrophenol liberated by this enzyme reaction was measured. To give the blank absorbance (Ablank), the sample (1 μl) and the substrate (99 μl) were incubated in the same manner and an aqueous solution of sodium carbonate (100 μl) was added followed by the measurement of the absorbance. […] The sample at each concentration, the blank and the control were treated each in two wells at the same time. As the buffer, a 0.1M phosphate buffer solution (pH 6.8, prepared from KH2 PO4 and K2 HPO4) was employed.

[2] = target: β-Glucosidase (Almonds, EC 3.2.1.21); assay: β-Glucosidase enzyme inhibition assay (p-nitrophenyl β-D-glucopyranoside); settings: for IC50: pH 5.0, 37° C., 45 minutes
Method: as §1, §2, §3, §4
2) β-Glucosidase (Almonds, EC 3.2.1.21) [described in A. Kobayashi, Agr. Biol. Chem., 26, 203-207 (1962)]
Into each well were introduced an aqueous solution of a sample (1 μl), a 0.33 mM solution of p-nitrophenyl β-D-glucopyranoside in a buffer (98 μl) and a (0.4 mg/ml) enzyme solution in the buffer (1 μl) to give a total volume of 100 μl. After incubating at 37° C. for 45 minutes, the reaction was ceased by adding a 1M aqueous solution of sodium carbonate (100 μl). Then the absorbance (A405) of p-nitrophenol liberated by this enzyme reaction was measured. To give the blank absorbance (Ablank), the sample (1 μl) and the substrate (99 μl) were incubated in the same manner and an aqueous solution of sodium carbonate (100 μl) was added followed by the measurement of the absorbance. […] As the buffer, a 0.1M acetate buffer solution (pH 5.0, prepared from NaOAc and AcOH) was employed. The IC50 was determined in the same manner as employed in the case of α-glucosidase.

[3] = system: α-Galactosidase (E. Coli, EC. 3.2.1.22); assay: α-Galactosidase enzyme inhibition assay (p-nitrophenyl α-D-galactopyranoside); settings: pH 6.5, room temperature, 15 minutes
Method: as §1, §3, §4
3) α-Galactosidase (E. Coli, EC. 3.2.1.22) [described in H. Suzuki, S-C. Li and Y-T. Li, J. Biol. Chem., 245, 781-786 (1970)]
Into each well were introduced an aqueous solution of a sample (1 μl), a buffer (74 μl), a 9.9 mM solution of p-nitrophenyl α-D-galactopyranoside in a buffer (20 μl) and a (50 μg/ml) enzyme solution in the buffer (5 μl) to give a total volume of 100 μl. After incubating the resulting mixture at room temperature (20°-30° C.) for 15 minutes, the reaction was ceased by adding a 0.2M borate buffer solution (pH 9.8, prepared from NaOH and H3 BO3, 100 μl). Then the absorbance (A405) of p-nitrophenol liberated by this enzyme reaction was measured. To give the blank absorbance (Ablank), the sample (1 μl), the substrate (20 μl) and the buffer solution (79 μl) were incubated in the same manner and the 0.2M borate buffer solution (100 μl) was added followed by the measurement of the absorbance. To give the control absorbance ([…]), on the other hand, water (1 μl), the substrate (20 μl), the buffer solution (74 μl) and the enzyme solution (5 μl) were incubated in the same manner and the borate buffer solution (100 μl) was added followed by the measurement of the absorbance. A 0.1M phosphate buffer solution (pH 6.5, prepared from KH2 PO4 and K2 HPO4) was employed as the buffer for the enzyme reaction. The IC50 was determined in the same manner as employed in the case of α-glucosidase.

[4] = target: T2, β-Galactosidase (E. Coli, EC. 3.2.1.23) (Escherichia coli, UniProt P00722); assay: β-Galactosidase (E. coli) enzyme inhibition assay (o-nitrophenyl β-D-galactopyranoside)
T2 construct: purchased Sigma; host or cells: E. coli
T2 sequence (P00722 2-1024 limits assumed): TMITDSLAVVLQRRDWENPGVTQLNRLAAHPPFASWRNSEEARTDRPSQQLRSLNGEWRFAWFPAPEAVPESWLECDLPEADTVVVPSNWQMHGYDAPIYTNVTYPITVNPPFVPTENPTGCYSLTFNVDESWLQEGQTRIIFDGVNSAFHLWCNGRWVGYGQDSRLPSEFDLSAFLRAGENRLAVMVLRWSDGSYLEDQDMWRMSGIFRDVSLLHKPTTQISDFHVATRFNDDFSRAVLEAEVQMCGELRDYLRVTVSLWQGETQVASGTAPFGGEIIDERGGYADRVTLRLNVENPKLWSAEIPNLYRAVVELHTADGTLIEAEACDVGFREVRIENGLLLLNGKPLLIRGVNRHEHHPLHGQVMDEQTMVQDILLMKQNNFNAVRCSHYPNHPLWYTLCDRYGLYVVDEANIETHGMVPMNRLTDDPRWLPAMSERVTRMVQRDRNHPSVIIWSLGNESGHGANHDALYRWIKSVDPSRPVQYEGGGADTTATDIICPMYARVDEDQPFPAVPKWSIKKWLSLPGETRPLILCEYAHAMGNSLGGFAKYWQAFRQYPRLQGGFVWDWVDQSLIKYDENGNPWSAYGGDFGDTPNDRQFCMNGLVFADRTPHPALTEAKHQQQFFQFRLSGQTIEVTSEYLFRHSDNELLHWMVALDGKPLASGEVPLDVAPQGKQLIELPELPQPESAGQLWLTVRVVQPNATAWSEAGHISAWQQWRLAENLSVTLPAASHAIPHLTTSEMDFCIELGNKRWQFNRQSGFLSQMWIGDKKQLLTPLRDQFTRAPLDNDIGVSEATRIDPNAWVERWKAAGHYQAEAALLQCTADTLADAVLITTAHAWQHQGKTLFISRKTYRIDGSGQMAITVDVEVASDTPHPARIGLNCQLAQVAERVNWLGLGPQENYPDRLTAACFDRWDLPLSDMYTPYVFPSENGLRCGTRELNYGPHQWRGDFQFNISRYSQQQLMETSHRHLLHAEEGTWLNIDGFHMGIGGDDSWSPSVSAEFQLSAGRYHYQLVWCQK
Method: as §1, §3, §4
4) β-Galactosidase (E. Coli, EC. 3.2.1.23) [described in G. R. Craven, E. Steers, Jr. and C. B. Anfinsen, J. Biol. Chem., 240, 2468-2477 (1965)]
Into each well were introduced an aqueous solution of a sample (2 μl), a buffer (153 μl), a 20 mM solution of o-nitrophenyl β-D-galactopyranoside in a buffer (25 μl), a 100 mM 2-mercaptoethanol (10 μl) and a (10 μg/ml) enzyme solution in the buffer (10 μl) to give a total volume of 200 μl. After incubating at room temperature (20°-30° C.) for 30 minutes, the absorbance (A405) of o-nitrophenol liberated by this enzyme reaction was measured. To give the blank absorbance (Ablank), the sample (2 μl), the substrate (25 μl), the buffer solution (163 μl) and 2-mercaptoethanol (10 μl) were incubated in the same manner followed by the measurement of the absorbance. To give the control absorbance (Acontrol), on the other hand, water (2 μl), the substrate (25 μl), the buffer solution (153 μl), 2-mercaptoethanol (10 μl) and the enzyme solution (10 μl) were incubated in the same manner followed by the measurement of the absorbance. A 50 mM phosphate buffer solution (pH 7.3, prepared from KH2 PO4 and K2 HPO4, containing 1.3 mM of MgCl2) was employed as the buffer for the enzyme reaction. The IC50 was determined in the same manner as employed in the case of α-glucosidase.

[5] = target: β-Galactosidase (Bovine liver. EC 3.2.1.23); assay: β-Galactosidase (Bovine liver) enzyme inhibition assay (o-nitrophenyl β-D-galactopyranoside); settings: pH 7.3, room temperature, 30 minutes
Method: as §1, §3, §4
5) β-Galactosidase (Bovine liver. EC 3.2.1.23) [described in T. Aoyagi, T. Hazato, M. Kumagai, M. Hamada, T. Takeuchi and H. Umezawa, J. Antibiot., 28, 1006-1008 (1975)]
Into each well were introduced an aqueous solution of a sample (2 μl), a buffer (158 μl), a 20 mM solution of o-nitrophenyl β-D-galactopyranoside in a buffer (25 μl), a 100 mM 2-mercaptoethanol (10 μl) and a (5 mg/ml) enzyme solution in the buffer (5 μl) to give a total volume of 200 μl. After incubating at room temperature (20°-30° C.) for 30 minutes, the absorbance (A405) of o-nitrophenol liberated by this enzyme reaction was measured. To give the blank absorbance (Ablank), the sample (2 μl), the substrate (25 μl), the buffer solution (163 μl) and 2-mercaptoethanol (10 μl) were incubated in the same manner followed by the measurement of the absorbance. […] The IC50 was determined in the same manner as the one employed in the case of α-glucosidase.

T1 sequence (P53341 whole entry): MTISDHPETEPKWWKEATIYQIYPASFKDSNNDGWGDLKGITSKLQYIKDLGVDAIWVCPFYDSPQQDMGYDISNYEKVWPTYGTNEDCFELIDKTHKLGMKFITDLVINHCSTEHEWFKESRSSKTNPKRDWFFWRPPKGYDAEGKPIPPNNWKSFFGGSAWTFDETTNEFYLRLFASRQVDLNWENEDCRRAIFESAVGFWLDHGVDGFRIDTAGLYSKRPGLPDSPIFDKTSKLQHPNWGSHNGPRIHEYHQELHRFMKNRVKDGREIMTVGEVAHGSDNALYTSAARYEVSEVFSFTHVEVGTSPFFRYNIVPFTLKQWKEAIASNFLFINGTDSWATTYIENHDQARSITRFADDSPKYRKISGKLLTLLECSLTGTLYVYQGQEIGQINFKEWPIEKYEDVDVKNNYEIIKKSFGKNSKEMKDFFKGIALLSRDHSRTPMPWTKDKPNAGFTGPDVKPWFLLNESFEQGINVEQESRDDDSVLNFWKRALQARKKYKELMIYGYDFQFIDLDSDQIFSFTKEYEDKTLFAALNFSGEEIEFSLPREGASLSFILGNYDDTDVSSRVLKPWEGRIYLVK

SMILES	IC50 [1]	IC50 [2]	IC50 [3]	IC50 [4]	IC50 [5]	inhibitory activity against α-glucosidase (in words) ([1]; compared with deoxynojirimycin, summary of Tables 1 and 2)	inhibitory activity against β-glucosidase (in words) ([2]; summary of Table 1)
OC[C@@]1(O)[C@H](O)C(O)[C@@H]2OC(Nc3ccccc3)=N[C@@H]21 (stereo in doubt) [Compound 1-1D, (1R,5S,6R,7R,8S)-6-hydroxymethyl-3-phenylamino-2-oxa-4-azabicyclo[3.3.0]oct-3-ene-6,7,8-triol]	2.32e-06 M	> 300 µM	> 300 µM	> 300 µM	3 µM	–	–
OC[C@@]1(O)[C@@H]2N=C(Nc3ccccc3)O[C@@H]2C(O)[C@@H]1O (stereo in doubt) [Compound 1-1L, (1S,5R,6S,7S,8R)-6-hydroxymethyl-3-phenylamino-2-oxa-4-azabicyclo[3.3.0]oct-3-ene-6,7,8-triol]	2.93e-08 M	> 300 µM	> 300 µM	> 300 µM	153 µM	remarkably strong inhibitory activities	weak inhibitory activities
